Results on four compounds are retold here after patent US5192791A, “Fused ring heterocycles and pharmaceutical compositions containing same” (Biofor, Ltd., priority 1990, dated 1993).

The structures appear in SMILES notation.

One experiment deals with yeast-induced fever. Nature of the experiment: Antipyretic Evaluation (yeast-induced fever in rats). The format is in vivo, male Sprague-Dawley rats. The conditions noted are these: 300 mg/kg, oral, 19 hours after yeast; temperature one hour after dosing. As for the experimental part:
Antipyretic: This activity was evaluated by creating a yeast-induced fever in rats according to a modified method of the procedure described by Loux et al in "Toxicology and Applied Pharmacology", Vol. 22: page 672 (1972). In this assay rats injected with yeast in distilled water were dosed with test compounds, aspirin (positive control) and a vehicle (negative control) and the observed differences in body temperature were analyzed statistically.
Antipyretic activity was evaluated using a modification of the test described by Loux et al, in Toxicology and Applied Pharmacology, 22:672 (1972), that is, yeast-induced fever in rats. Each test group consisted of ten male Sprague-Dawley rats (Charles River Laboratories), weighing 180-225 grams each. Eighteen hours prior to compound administration the rats were weighed and body temperatures were recorded. Food was removed with water available ad libitum. […]
Test compounds suspended in 0.25% methylcellulose (0.25% MC) or olive oil were administered orally by gavage nineteen hours following the yeast injection. Body temperatures were taken and recorded one hour after compound administration. […] The mean temperature of the compound-treated groups, positive control group (Aspirin) and negative control group (vehicle) were calculated at 18 hours and 20 hours. The data was analyzed statistically using a paired-samples Student's t-Test.

The test system of experiment [1] is Mycobacterium butyricum adjuvant arthritis, hind paw edema. Nature of the experiment: Adjuvant Arthritis Assay; Immunomodulatory. The format is in vivo, Lewis female rats. The settings on record: 50 mg/kg, oral, Day 5 to 9; edema on Day 15. On the procedure: Immunomodulatory: This activity was determined by using a Modified Adjuvant Assay procedure in which female rats were injected with Mycobacterium butyricum to induce hind paw edema. The test compounds were administered orally and the difference in volume between dosed and non-dosed paws was determined.
Lewis female rats were injected in the tail subcutaneously with Mycobacterium butyricum (0.75 mg in 0.1 ml light mineral oil, Fisher) on Day Zero. Prior to injection the volumes of the left and right rear paws were measured by mercury displacement. All rats were dosed orally with vehicle or test compounds on Day 5 to 9 inclusive. The volume of both hind paws were determined on Day 15 and the percent inhibitions were calculated based upon average edema on Day 15 relative to the edema mean in the control group.

Experiment [2] has the same test system. Nature of the experiment: Adjuvant Arthritis Assay: Developing (hind paw edema, rats). The format is in vivo, female Lewis rats. The settings on record: 96 h, dosed once daily for 4 days in 0.25% methylcellulose, paw edema on fifth day. As for the experimental part:
Anti-Inflammatory: This activity was evaluated via a modification of the Adjuvant Arthritis Assay (AA) described by S. […] This assay measures the ability of the test compound to antagonize local edema, a characteristic of the inflammatory response. […] The left and right rear paws of female Lewis rats (Charles River Laboratories) weighing 160-180 grams each were measured by mercury displacement prior to injection (Day Zero). Adjuvant arthritis was induced in this rat colony by subcutaneous injection of Mycobacterium butyricum (0.75 mg in 0.1 ml light mineral oil, Fisher) using an automated Cornwall syringe. On days 11-15 post-adjuvant the injected animals with 0.25 to 0.75 ml. paw edema were selected and distributed evenly, according to edema size, into control and experimental groups of ten rats each. Vehicle control and drug treatments were assigned to the groups at random. The assay was performed using a variable dose level for each test compound per kilogram per day in 0.25% methylcellulose vehicle. All animals were dosed once daily for 4 days and on the fifth day both hind paw volumes were again measured using mercury displacement. The hind paw edema was determined for each rat by subtracting the hind paw volume measured on Day Zero from the hind paw volume measured on the fifth day of the study. Group means were determined and the drug effect was calculated as percent inhibition of the hind paw edema according to the following equation: [formula] […] The known anti-inflammatory NAPROXEN was also tested for comparison purposes.

In the case of `CC(=O)Oc1ccccc1C(=O)O` [Aspirin, reference compound], the “Change in Temperature, 18-20 Hour Period” value in the experiment on yeast-induced fever was -2.05 °C.

In the case of `CC(C)(C)c1cc(N2CCCC2=O)cc(C(C)(C)C)c1O` [Example 1, 1-(3,5-di-tert-butyl-4-hydroxyphenyl)pyrrolidin-2-one], the “% Inhibition” value in experiment [1] is 39%. Moreover, in experiment [2], the ED50 amounted to 21 mg/kg. In addition, the “Change in Temperature, 18-20 Hour Period” value with yeast-induced fever is -1.55 °C.

Take `CC(C)(C)c1cc(N2CCCCC2=O)cc(C(C)(C)C)c1O` [Example 2, 1-(3,5-di-tert-butyl-4-hydroxyphenyl)piperidin-2-one]: the median effective dose (ED50) in experiment [2] came to 34 mg/kg.

With `COc1ccc2cc([C@H](C)C(=O)O)ccc2c1` [NAPROXEN, reference compound], in experiment [2], the ED50 worked out at 28 mg/kg.
